Data on one compound can be found in paper PMC8986850, “Development and exploration of novel substituted thiosemicarbazones as inhibitors of aldose reductase via in vitro analysis and computational study” (Scientific Reports, 2022).

In one data set the target is T1, ALR2 (Bos taurus, UniProt P16116).
T1 construct: from tissue; host or cells: calf eye lenses
Put plainly: ALR2 enzyme inhibition assay (enzyme extracted from calf lenses). The class given is biochemical, bovine. How it is done: Compounds 3a-o were tested against ALR2 to evaluate their inhibitory potential against aldose reductase whereas selectivity was determined via performing ALR1 inhibition assay. For the enzyme inhibition assay, ALR2 and ALR1 were extracted from bovine sources (ALR2 from eyes and ALR1 from kidneys). Moreover, inhibitions studies were also carried out on the expressed ALR2 (human AKR1B1) and inhibition data for ALR2- bovine source and expressed enzyme was compared and analyzed. The protocols for enzyme extraction and expression in the bacterial system are included in the section of “Supporting information”. […] For the purpose of comparison and validation of enzyme inhibition data, these compounds were tested against human AKR1B1 (hAKR1B1) expressed in E. coli BL21 (DE3).
(§1) For the determination of enzyme activity of ALR1 and ALR2, 100 µL of reaction mixture was composed of 20 µL of buffer (100 mM sodium phosphate, pH 6.2), 30 µL of enzyme extract, 20 µL of substrate (10 mM), 20 µL of cofactor (0.1 mM of NADPH) and 10 µL of test compound (1 mM)[6],[21]. The reaction mixture without cofactor was incubated at 32°C for 10 min, then the enzymatic reaction was initiated with the addition of NADPH and monitored for 5 minutes. Similar protocols were followed for ALR1 and ALR2, however the substrate was different for each enzyme, with sodium-D-glucoronate and DL-glyceraldehyde used as the substrates for the ALR1 and ALR2 assays, respectively. […] In addition, similar protocols were adopted for human AKR1B1 that was expressed in E. coli BL21 (DE3), though the determined protein concentration was 12 µg/mL for the expressed enzyme. Detailed protocols for the preparation of ALR1, ALR2 and expressed human AKR1B1 can be found in the supporting information.
(§2) The newly synthesized N-substitute thiosemicarbazones (3a-o) were dissolved in 100% DMSO and diluted with deionized water, keeping the DMSO concentration equal to 0.1% in the assay.
The extraction of ALR2 was carried out from calf lenses via adopting method described in
in (Hayman and Kinoshita 1965) with little modification. The lenses were obtained from slaughterhouse immediately after calf’s slaughtering and stored at -20^◦C until further use. These lense (150-170g) were subjected to homogenization with about three times volume of cold distilled water and then centrifugation was carried out for the homogenate at 10,000 x g for 14 minutes for removal of insoluble lipids particles. Precipitates were discarded and supernatant layer was subjected to 40% saturation of ammonium sulphate and again centrifugation was performed with same parameters for 14 minutes and again precipitates were discarded. […] In the last step, the supernatant was subjected to 75% of saturation with ammonium sulphate to obtain ALR2. Now, the precipitates were collected instead supernatant because precipitated protein was the expected desired ALR2. The precipitated enzyme (ALR2) was redissolved in 50mM solution of sodium chloride and dialyzed for 24 hours against 50mM solution (3.5L) of NaCl. The volume was recorded before and after dialysis, then dialyzed material was treated with liquid nitrogen. The extracted ALR2 was stored in 1mL Eppendorf tube in deep freezer at -80 ^◦C till further enzymatic studies.

The next data set deals with T2, ALR1 (Bos taurus, UniProt Q3ZCJ2).
T2 construct: The calf’s kidneys were obtained after slaughtering and dissection; from tissue; host or cells: calf kidneys
Briefly: ALR1 enzyme inhibition assay (enzyme extracted from calf kidneys). It is filed as biochemical, bovine. The following applies: bovine kidney ALR1, 100 µM inhibitor; read-out: I (%, 100 µM) (ALR1). How it is done:
Compounds 3a-o were tested against ALR2 to evaluate their inhibitory potential against aldose reductase whereas selectivity was determined via performing ALR1 inhibition assay. For the enzyme inhibition assay, ALR2 and ALR1 were extracted from bovine sources (ALR2 from eyes and ALR1 from kidneys). Moreover, inhibitions studies were also carried out on the expressed ALR2 (human AKR1B1) and inhibition data for ALR2- bovine source and expressed enzyme was compared and analyzed. The protocols for enzyme extraction and expression in the bacterial system are included in the section of “Supporting information”. […] For the purpose of comparison and validation of enzyme inhibition data, these compounds were tested against human AKR1B1 (hAKR1B1) expressed in E. coli BL21 (DE3). We found a similar pattern of enzyme inhibition for the synthesized compounds against extracted enzyme (ALR2) as well as expressed enzyme (hAKR1B1).
as §1, §2
The calf’s kidneys were obtained after slaughtering and dissection, dissolved in 3 volumes of sodium phosphate buffer (10mM) which is composed of 2.0 mM EDTA, 2.5mM β-mercaptoethanol, 0.25M solution of sucrose at pH 7.25. First, the homogenisation was carried out then centrifugation of the homogenate was performed at 12000 x g at 0-2^◦C for 30 minutes. The precipitates containing insoluble lipids were discarded and the collected supernatant layer was treated with 40% saturation of ammonium sulphate. This liquid mixture was subjected to centrifugation at 11000 x g at 0-2^◦C for 30 minutes. Now, precipitates were again discarded and supernatant was collected and treated with 50% ammonium sulphate and procedure was repeated in the same manner as in previous step. In the last step, the saturation of ammonium sulphate was increased up to 75% and supernatant was subjected to same parameter of centrifugation. At this final step, precipitates were obtained and supernatant layer was discarded. The obtained material of precipitates was composed of ALR1and redissolved in initial buffer that was used during homogenisation. Finally, material was dialyzed overnight with same buffer system. The dialyzed fractions containing ALR1 were stored at -80^◦C for further use[5].

A short description of data set [1]: DPPH radical scavenging activity. Conditions: 100 µM compound, methanolic DPPH 0.025 mg/mL, 517 nm. Here is the method:
DPPH (2,2-diphenyl-1-picrylhydrazyl) was used to explore the free radical quenching ability of 3a-o so as to provide a gauge of their antioxidant potential. The experiment was conducted according to a previously reported protocol with slight modifications. Percent free radical scavenging activities (% FRSA) of 3a-o were determined by spectrophotometric analysis at 517 nm using a homogenous mixture of methanolic DPPH (0.025 mg/mL) and a 100 µM solution of the tested compound, with ascorbic acid used as a positive control (Fig. 3).

T2 sequence (Q3ZCJ2 whole entry): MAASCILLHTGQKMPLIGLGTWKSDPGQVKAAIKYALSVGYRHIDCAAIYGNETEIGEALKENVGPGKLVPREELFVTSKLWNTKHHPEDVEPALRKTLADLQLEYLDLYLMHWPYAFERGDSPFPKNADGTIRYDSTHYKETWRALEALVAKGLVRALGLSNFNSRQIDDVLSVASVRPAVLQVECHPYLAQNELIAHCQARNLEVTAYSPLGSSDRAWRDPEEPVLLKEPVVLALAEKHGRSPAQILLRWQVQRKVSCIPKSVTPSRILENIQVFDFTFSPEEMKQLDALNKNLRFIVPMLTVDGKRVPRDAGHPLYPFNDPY

As to `CC(C)(C)c1cc(C=NNC(=S)Nc2ccccc2F)c(O)c(C(C)(C)C)c1` [Compound 3m, 2-(3,5-di-tert-butyl-2-hydroxybenzylidene)-N-(2-fluorophenyl)hydrazine carbothioamide], the melting point is 180 to 182 °C. Besides, the inhibition at 100 µM at ALR2 (bovine lens ALR2, 100 µM inhibitor, read-out: I (%, 100 µM) (ALR2) (converted)) is 85.1%. Half-maximal inhibition on ALR2 (bovine lens ALR2, substrate DL-glyceraldehyde, mean ± SEM of three measurements) (IC50) was put at 1180 ± 3.4 nM. Moreover, on ALR1, the inhibition at 100 µM was 4.27 to 26.2%. In data set [1], the “% FRSA (percent free radical scavenging activity)” value is given as 75.95%.
